Test results as given in patent publication US11021481B2, “Substituted isoindolin-1-ones and 2,3-dihydro-1h-pyrrolo[3,4-c]pyridin-1-ones as HPK1 antagonists” (Nimbus Saturn, Inc., priority 2019, dated 2021).

The molecules below were run against HPK1 (Homo sapiens (Human), UniProt Q92918) (assay: HPK1 biochemical enzyme assay (microfluidic mobility shift assay)). Conditions: 1.5 nM HPK1, ATP 1 mM final, 30 min preincubation, 60 min at RT, Caliper EZ Reader; read-out: HPK1 1000UMATP caliper IC50.
Summary of the method: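 Mobility shift readout of HPK1 activity after a 60 min RT reaction with 1 mM ATP, 1 μM substrate and 5 mM MgCl2. Enzyme/substrate mix was first exposed to compounds for 30 min, using ten-point curves topping at 3 μM final.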

HPK1, sequence (Q92918 whole entry): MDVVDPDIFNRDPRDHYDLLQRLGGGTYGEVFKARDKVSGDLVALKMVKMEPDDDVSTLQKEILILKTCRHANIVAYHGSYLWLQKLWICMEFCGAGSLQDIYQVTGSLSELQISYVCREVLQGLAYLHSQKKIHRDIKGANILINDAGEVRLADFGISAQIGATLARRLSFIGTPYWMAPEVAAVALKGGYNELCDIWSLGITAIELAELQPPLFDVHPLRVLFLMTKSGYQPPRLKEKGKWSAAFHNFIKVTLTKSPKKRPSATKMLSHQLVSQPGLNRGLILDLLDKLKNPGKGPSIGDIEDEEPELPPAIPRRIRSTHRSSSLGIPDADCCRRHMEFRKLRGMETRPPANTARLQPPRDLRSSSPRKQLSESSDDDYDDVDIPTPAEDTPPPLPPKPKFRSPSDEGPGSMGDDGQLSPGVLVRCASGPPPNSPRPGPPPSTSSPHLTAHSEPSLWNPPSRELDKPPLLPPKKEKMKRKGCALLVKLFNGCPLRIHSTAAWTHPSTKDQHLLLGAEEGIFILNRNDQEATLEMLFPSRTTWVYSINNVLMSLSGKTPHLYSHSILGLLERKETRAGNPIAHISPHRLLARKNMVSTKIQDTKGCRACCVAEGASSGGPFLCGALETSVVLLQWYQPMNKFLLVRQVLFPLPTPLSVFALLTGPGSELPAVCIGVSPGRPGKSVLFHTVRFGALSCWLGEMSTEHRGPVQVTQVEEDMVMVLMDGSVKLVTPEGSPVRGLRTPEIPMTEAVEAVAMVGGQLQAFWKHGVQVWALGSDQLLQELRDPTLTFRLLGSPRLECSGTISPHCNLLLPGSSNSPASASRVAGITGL

| Structure (SMILES) | IC50 |
| --- | --- |
| CN1CCN(c2ccc(Nc3ccc(-c4ncnc5c4ccn5C)c4c3C(=O)NC4)nc2)CC1 [I-83, 7-[[5-(4-methylpiperazin-1-yl)-2-pyridyl]amino]-4-(7-methylpyrrolo [2,3-d]pyrimidin-4-yl)isoindolin-1-one] | < 100 nM |
| Cc1cccc2c(-c3ccc(Nc4ccc(N5CCNCC5)cn4)c4c3CNC4=O)cnn12 [I-84, 4-(7-methylpyrazolo [1,5-a]pyridin-3-yl)-7-[(5-piperazin-1-yl-2-pyridyl)amino] isoindolin-1-one] | < 100 nM |
| CN1CCN(c2ccc(Nc3ccc(-c4nnc5ccccn45)c4c3C(=O)NC4)nc2)CC1 [I-85, 7-[[5-(4-methylpiperazin-1-yl)-2-pyridyl]amino]-4-([1,2,4]triazolo [4,3-a]pyridin-3-yl)isoindolin-1-one] | < 100 nM |
| Cc1ccc2ncc(-c3ccc(Nc4ccc(N5CCNCC5)cn4)c4c3CNC4=O)n2c1 [I-86, 4-(6-methylimidazo [1,2-a]pyridin-3-yl)-7-[(5-piperazin-1-yl-2-pyridyl)amino] isoindolin-1-one] | < 100 nM |
| O=C1NCc2c(-c3cnc4c(F)cccn34)ccc(Nc3ccc(N4CCNCC4)cn3)c21 [I-88, 4-(8-fluoroimidazo [1,2-a]pyridin-3-yl)-7-[(5-piperazin-1-yl-2-pyridyl)amino] isoindolin-1-one] | < 100 nM |
| Cc1ccc2c(-c3ccc(Nc4ccc(N5CCNCC5)cn4)c4c3CNC4=O)cnn2c1 [I-89, 4-(6-methylpyrazolo[1,5-a]pyridin-3-yl)-7-[(5-piperazin-1-yl-2-pyridyl)amino] isoindolin-1-one] | < 100 nM |
| O=C1NCc2c(-c3cnn4ccccc34)ccc(Nc3ccc(N4CCNCC4)cn3)c21 [I-90, 7-[(5-piperazin-1-yl-2-pyridyl)amino]-4-pyrazolo[1,5-a]pyridin-3-yl-isoindolin-1-one] | < 100 nM |
| CNC1CCN(c2ccc(Nc3ccc(-c4cnc5cccnn45)c4c3C(=O)NC4)nc2)CC1 [I-91, 4-imidazo[1,2-b]pyridazin-3-yl-7-[[5-[4-(methylamino)-1-piperidyl]-2-pyridyl]amino] isoindolin-1-one] | < 100 nM |
| CN[C@H]1CCCN(c2ccc(Nc3ccc(-c4ccnc5c4ccn5C)c4c3C(=O)NC4)nc2)C1 [I-97, 7-[[5-[(3S)-3-(methylamino)-1-piperidyl]-2-pyridyl]amino]-4-(1-methylpyrrolo [2,3-b]pyridin-4-yl)isoindolin-1-one] | < 100 nM |
| Cc1cn(C)c2nccc(-c3ccc(Nc4ccc(N5CCNCC5)cn4)c4c3CNC4=O)c12 [I-98] | < 100 nM |
| Cc1cnc2c(ccn2C)c1-c1ccc(Nc2ccc(N3CCNCC3)cn2)c2c1CNC2=O [I-99, 4-(l,5-dimethylpyrrolo [2,3-b]pyridin-4-yl)-7-[(5-piperazin-1-yl-2-pyridyl)amino] isoindolin-1-one] | 100 to 1000 nM |
| CN[C@@H]1CCCN(c2ccc(Nc3ccc(-c4ccnc5c4ccn5C)c4c3C(=O)NC4)nc2)C1 [I-100, 7-[[5-[(3R)-3-(methviamino)-1-piperidyl]-2-pyridyl]amino]-4-(1-methylpyrrolo [2,3-b]pyridin-4-yl)isoindolin-1-one] | < 100 nM |
| O=C1NCc2c(-c3cnc4ccccn34)ccc(Nc3ccc(N4CC5CCC(C4)N5)cn3)c21 [I-101, 7-[[5-(3,8-diazabicyclo [3,2.1]octan-3-yl)-2-pyridyl]amino]-4-imidazo[1,2-a]pyridin-3-yl-isoindolin-1-one] | < 100 nM |
| Cn1ccc2c(-c3ccc(Nc4ccc(N5CCNCC5)cn4)c4c3CNC4=O)cccc21 [I-102, 4-(1-methylindol-4-yl)-7-[(5-piperazin-1-yl-2-pyridyl)amino] isoindolin-1-one] | < 100 nM |
| Cc1cc(-c2ccc(Nc3ccc(N4CCNCC4)cn3)c3c2CNC3=O)c2ccn(C)c2n1 [I-103, 4-(1,6-dimethylpyrrolo [2,3-b]pyridin-4-yl)-7-[(5-piperazin-1-yl-2-pyridyl)amino] isoindolin-1-one] | 100 to 1000 nM |
| O=C1NCc2c(-c3cnc4ccccn34)ccc(Nc3ccc(N4CCCNCC4)cn3)c21 [I-104, 7-[[5-(l,4-diazepan-1-yl)-2-pyridyl]amino]-4-imidazo[1,2-a]pyridin-3-yl-isoindolin-1-one] | < 100 nM |
| Cn1ccc2c(-c3ccc(Nc4ccc(N5CCOCC5)cn4)c4c3CNC4=O)ccnc21 [I-110, 4-(1-methylpyrrolo [2,3-b]pyridin-4-yl)-7-[(5-morpholino-2-pyridyl)amino] isoindolin-1-one] | < 100 nM |
| CN1CCN(c2ccc(Nc3ccc(-c4cnn5ccncc45)c4c3C(=O)NC4)nc2)CC1 [I-113, 7-[[5-(4-methylpiperazin-1-yl)-2-pyridyl]amino]-4-pyrazolo[1,5-a]pyrazin-3-yl-isoindolin-1-one] | < 100 nM |
| Cn1cnc2nccc(-c3ccc(Nc4ccc(N5CCNCC5)cn4)c4c3CNC4=O)c21 [I-114, 4-(1-methylimidazo [4,5-b]pyridin-7-yl)-7-[(5-piperazin-1-yl-2-pyridyl)amino] isoindolin-1-one] | > 1000 nM |
| Cn1ccc2c(-c3ccc(Nc4cc(C5CCNCC5)n[nH]4)c4c3CNC4=O)ccnc21 [I-115, 4-(1-methylpyrrolo [2,3-b]pyridin-4-yl)-7-[[3-(4-piperidyl)-1H-pyrazol-5-yl]amino]isoin-dolin-1-one] | < 100 nM |
| Cn1ccc2c(-c3ccc(Nc4ccc(N5CCC[C@H](O)C5)cn4)c4c3CNC4=O)ccnc21 [I-116, 7-[[5-[(3S)-3-hydroxy-1-piperidyl]-2-pyridyl]amino]-4-(1-methylpyrrolo [2,3-b]pyridin-4-yl)isoindolin-1-one] | < 100 nM |
| O=C1NCc2c(-c3cnn4cccnc34)ccc(Nc3ccc(N4CCNCC4)cn3)c21 [I-117, 7-[(5-piperazin-1-yl-2-pyridyl)amino]-4-pyrazolo[1,5-a]pyrimidin-3-yl-isoindolin-1-one] | < 100 nM |

The remaining lines, values ahead:

| IC50 | Structure (SMILES) |
| --- | --- |
| < 100 nM | O=C1NCc2c(-c3cnc4n3CCCC4)ccc(Nc3ccc(N4CCNCC4)cn3)c21 [I-80, 7-[(5-piperazin-1-yl-2-pyridyl)amino]-4-(5,6,7,8-tetrahydro-imidazo[1,2-a]pyridin-3-yl)isoindolin-1-one] |
| < 100 nM | CN1CCN(c2ccc(Nc3ccc(-c4ccnc5cc[nH]c45)c4c3C(=O)NC4)nc2)CC1 [I-81, 7-[[5-(4-methylpiperazin-1-yl)-2-pyridyl]amino]-4-(1H-pyrrolo[3,2-b]pyridin-7-yl)isoindolin-1-one] |
| < 100 nM | O=C1NCc2c(-c3cnc4cccnn34)ccc(Nc3ccc(N4CCNCC4)cn3)c21 [I-82, 4-imidazo[1,2-b]pyridazin-3-yl-7-[(5-piperazin-1-yl-2-pyridyl)amino] isoindolin-1-one] |
| < 100 nM | O=C1NCc2c(-c3cnc4ncccn34)ccc(Nc3ccc(N4CCNCC4)cn3)c21 [I-87, 4-imidazo[1,2-a]pyrimidin-3-yl-7-[(5-piperazin-1-yl-2-pyridyl)amino] isoindolin-1-one] |
| < 100 nM | CN1CCN(c2ccc(Nc3ccc(-c4cnc5n4CCNC5)c4c3C(=O)NC4)nc2)CC1 [I-92] |
| < 100 nM | CN1CCc2c(-c3ccc(Nc4ccc(N5CCNCC5)cn4)c4c3CNC4=O)ccnc21 [I-93, 4-(1-methyl-2,3-dihydropyrrolo [2,3-b]pyridin-4-yl)-7-[(5-piperazin-1-yl-2-pyridyl)amino] isoindolin-1-one] |
| < 100 nM | Cn1ccc2c(-c3ccc(Nc4ccc(N5CCC[C@H](N)C5)cn4)c4c3CNC4=O)ccnc21 [I-94, 7-[[5-[(3S)-3-amino-1-piperipyl]-2-pyridyl]amino]-4-(l-methylpyrrolo [2,3-b]pyridin-4-yl)isoindolin-1-one] |
| < 100 nM | Cn1ccc2c(-c3ccc(Nc4ccc(N5CCC[C@@H](N)C5)cn4)c4c3CNC4=O)ccnc21 [I-95, 7-[[5-[(3R)-3-amino-1-piperipyl]-2-pyridyl]amino]-4-(1-methylpyrrolo [2,3-b]pyridin-4-yl)isoindolin-1-one] |
| < 100 nM | Cn1ccc2c(-c3ccc(Nc4ccc(C5CCNCC5)cn4)c4c3CNC4=O)ccnc21 [I-96, 4-(1-methylpyrrolo [2,3-b]pyridin-4-yl)-7-[[5-(4-piperidyl)-2-pyridyl]amino] isoindolin-1-one] |
| < 100 nM | CN1CCOc2c(-c3ccc(Nc4ccc(N5CCNCC5)cn4)c4c3CNC4=O)ccnc21 [I-105, 4-(4-methyl-2,3-dihydropyrido [3,2-b][1.4]oxazin-8-yl)-7-[(5-piperazin-1-yl-2-pyridyl)amino] isoindolin-1-one] |
| < 100 nM | Cn1ccc2c(-c3ccc(Nc4ccc(S(C)(=O)=O)cn4)c4c3CNC4=O)ccnc21 [I-106, 4-(1-methylpyrrolo [2,3-b]pyridin-4-yl)-7-[(5-methylsulfonyl-2-pyridyl)amino] isoindolin-1-one] |
| < 100 nM | O=C1NCc2c(-c3ccnc4ccsc34)ccc(Nc3ccc(N4CCNCC4)cn3)c21 [I-107, 7-[(5-piperazin-1-yl-2-pyridyl)amino]-4-thieno[3,2-b]pyridin-7-yl-isoindolin-1-one] |
| < 100 nM | Cn1ccc2c(-c3ccc(Nc4ccc(C5CCOC5)cn4)c4c3CNC4=O)ccnc21 (centres unmarked) [I-108, 4-(1-methylpyrrolo [2,3-b]pyridin-4-yl)-7-[(5-THF-3-yl-2-pyridyl)amino] isoindolin-1-one] |
| < 100 nM | CCNC(=O)c1ccc(Nc2ccc(-c3ccnc4c3ccn4C)c3c2C(=O)NC3)nc1 [I-109, N-ethyl-6-[[7-(1-methylpyrrolo [2,3-b]pyridin-4-yl)-3-oxo-isoindolin-4-yl]amino]pyridine-3-carboxamide] |
| < 100 nM | Cc1cnc2c(-c3ccc(Nc4ccc(N5CCN(C)CC5)cn4)c4c3CNC4=O)cnn2c1 [I-111, 7-[[5-(4-methylpiperazin-1-yl)-2-pyridyl]amino]-4-(6-methylpyrazolo[1,5-a]pyrimidin-3-yl)isoindolin-1-one] |
| < 100 nM | CN1CCN(c2ccc(Nc3ccc(-c4cnn5cccnc45)c4c3C(=O)NC4)nc2)CC1 [I-112, 7-[[5-(4-methylpiperazin-1-yl)-2-pyridyl]amino]-4-pyrazolo[1,5-a]pyrimidin-3-yl-isoindolin-1-one] |
